Consider 26 compounds from patent publication US8697869B2, “3-(heteroaryl-amino)-1,2,3,4-tetrahydro-9H-carbazole derivatives and their use as prostaglandin D2 receptor modulators” (Actelion Pharmaceuticals Ltd., priority 2010, dated 2014).

Usually IC50 stands for the concentration at which inhibition is half-maximal.

The target in experiment [1] is T1, hCRTH2 receptor (Homo sapiens (Human), UniProt Q9Y5Y4). As to the kind of experiment: hCRTH2 receptor membranes radioligand displacement assay (3H-PGD2). The note with it: 3H-PGD2 2.5 nM, HEK293-hCRTH2 membranes, Binding-Buffer with 0.1% BSA. The protocol:
Biological Assays: Preparation of hCRTH2 Receptor Membranes and Radioligand Displacement Assay:
(§1) First, recombinant HEK293-hCRTH2 cells were detached from culture plates into 5 ml buffer A/plate (Buffer A: 5 mM Tris, 1 mM MgCl2-6H2O pH=7.4) using a rubber policeman. Cells were then transferred into centrifugation tubes and centrifuged for 5 min at 400 g. The cell pellet was resuspended in the same buffer and tubes were frozen at −80° C. Cells were thawed and membrane fragments were generated by homogenization using a polytron homogenizer (30 seconds). The membrane fragments were then centrifuged at 3000 g for 20 minutes and resuspended in buffer C (Buffer C: 75 mM Tris, 25 mM MgCl2, 250 mM Saccharose pH 7.4). Aliquots of membrane fragements were stored at −20° C.
(§2) Binding assay was performed in a final assay volume of 250 μl. First, 25 μl of test compound, previously diluted in Binding-Buffer (Binding-Buffer: 50 mM Tris-Base, 100 mM NaCl, 1 mM EDTA, 0.1% BSA (protease free), 0.01% NaN3, 10 mM MnCl2 pH 7.0) was placed into each well. After addition of 75 μl Binding-Buffer, 50 μl of the radioligand ^3H-PGD2 (at 2.5 nM (220.000 dpm/well) from ANAWA ART0662) was added to each well. Binding assay was started by addition of 100 μl CRTH2 membrane fragments, reaching a final concentration of 20 μg/well. For non-specific binding, PGD2 was added to the reaction mixture to […] final concentration. This assay mix was incubated for 90 minutes at room temperature and then filtered through a GF/C filter 96-well plate which was pre-soaked for 3 hours in 0.5% polyethyleneimine (PEI). The filter-wells were washed three times with ice cold Binding-Buffer. Then, 40 μl of Microscint-40 (Packard) was added to each well and the retained radioactivity quantified in a Topcount (Packard).
A general note: Displacement assays read how much labelled ligand stays bound in the presence of the test substance.

Experiment [2] concerns the target T1, hCRTH2 receptor. In words: Radioligand displacement assay in presence of human serum albumin (HSA). The note with it: 3H-PGD2 2.5 nM, Binding-Buffer with 0.5% HSA instead of 0.1% BSA. How it is done: as §1, §2
Radioligand Displacement Assay-Human Serum Albumin (HSA):
Radioligand displacement assay in presence of human serum albumin (HSA) was performed as described above, with following modifications. Binding-Buffer-HSA: Binding-buffer+0.5% Sigma Albumin from Human serum A1887 (instead of 0.1% BSA). A volume of 25 μl test compound, previously diluted in Binding-Buffer-HSA was placed into each well. After addition of 75 μl Binding-Buffer-HSA, 50 μl of ^3H-PGD2 (at 2.5 nM (220.000 dpm/well) from ANAWA ART0662) was added to each well. Remaining protocol was identical as described above.

T1 sequence (Q9Y5Y4 whole entry): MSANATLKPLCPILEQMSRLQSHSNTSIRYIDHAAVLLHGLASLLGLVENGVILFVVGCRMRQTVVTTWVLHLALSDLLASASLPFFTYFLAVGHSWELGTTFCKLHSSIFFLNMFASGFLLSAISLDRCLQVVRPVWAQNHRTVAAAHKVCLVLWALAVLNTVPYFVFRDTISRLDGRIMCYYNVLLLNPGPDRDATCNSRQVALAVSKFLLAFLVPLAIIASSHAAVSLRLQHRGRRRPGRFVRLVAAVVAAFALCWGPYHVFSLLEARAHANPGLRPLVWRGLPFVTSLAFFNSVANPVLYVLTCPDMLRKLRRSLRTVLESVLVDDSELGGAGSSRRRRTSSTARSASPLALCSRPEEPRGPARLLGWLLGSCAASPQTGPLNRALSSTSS

With `O=C(O)Cn1c2c(c3cc(F)ccc31)C[C@H](Nc1ncc(F)cn1)CC2` [Example 2, (3R)-2-(6-fluoro-3-((5-fluoropyrimidin-2-yl)amino)-3,4-dihydro-1H-carbazol-9-(2H)-yl)acetic acid], at hCRTH2 receptor [1], the concentration for half-maximal inhibition (IC50) was found to be 27 nM.
On the same count and under the same terms, for `O=C(O)Cn1c2c(c3cc(F)ccc31)C[C@H](Nc1ncc(C(F)(F)F)cn1)CC2` [Example 5, (3R)-2-(6-fluoro-3-((5-(trifluoromethyl)pyrimidin-2-yl)amino)-3,4-dihydro-1H-carbazol-9-(2H)-yl)acetic acid] the value was 27 nM; for `O=C(O)Cn1c2c(c3cc(F)ccc31)C[C@H](Nc1nccc(C(F)(F)F)n1)CC2` [Example 6, (3R)-2-(6-fluoro-3-((4-(trifluoromethyl)pyrimidin-2-yl)amino)-3,4-dihydro-1H-carbazol-9-(2H)-yl)acetic acid], 46 nM; for `CN(c1ncc(F)cn1)[C@@H]1CCc2c(c3cc(F)ccc3n2CC(=O)O)C1` [Example 8, (3R)-2-(6-fluoro-3-((5-fluoropyrimidin-2-yl)(methyl)amino)-3,4-dihydro-1H-carbazol-9(2H)-yl)acetic acid], 42 nM.
On the same count and under the same terms, for `CN(c1ncc(Cl)cn1)[C@@H]1CCc2c(c3cc(F)ccc3n2CC(=O)O)C1` [Example 10, (3R)-2-(3-((5-chloropyrimidin-2-yl)(methyl)amino)-6-fluoro-3,4-dihydro-1H-carbazol-9(2H)-yl)acetic acid] the value was 58 nM; for `CN(c1ncc(C(F)(F)F)cn1)[C@@H]1CCc2c(c3cc(F)ccc3n2CC(=O)O)C1` [Example 12, (3R)-2-(6-fluoro-3-(methyl(5-(trifluoromethyl)pyrimidin-2-yl)amino)-3,4-dihydro-1H-carbazol-9(2H)-yl)acetic acid], 141 nM.
As for `CN(c1nccc(C(F)(F)F)n1)[C@H]1CCc2c(c3cc(F)ccc3n2CC(=O)O)C1` [Example 13, (3S)-2-(6-fluoro-3-(methyl(4-(trifluoromethyl)pyrimidin-2-yl)amino)-3,4-dihydro-1H-carbazol-9(2H)-yl)acetic acid], the results for the half-inhibitory concentration (IC50) at hCRTH2 receptor [1] and on hCRTH2 receptor [2] were 12 nM and 769 nM, respectively.
Regarding `CN(c1nccc(C(F)(F)F)n1)[C@@H]1CCc2c(c3cc(F)ccc3n2CC(=O)O)C1` [Example 14, (3R)-2-(6-fluoro-3-(methyl(4-(trifluoromethyl)pyrimidin-2-yl)amino)-3,4-dihydro-1H-carbazol-9(2H)-yl)acetic acid], the half-maximal inhibitory concentration (IC50) at hCRTH2 receptor [1] is 67 nM.
Take `Cc1cc(C)nc(N(C)[C@H]2CCc3c(c4cc(F)ccc4n3CC(=O)O)C2)n1` [Example 16, (3S)-2-(3-((4,6-dimethylpyrimidin-2-yl)(methyl)amino)-6-fluoro-3,4-dihydro-1H-carbazol-9(2H)-yl)acetic acid]: the IC50 at hCRTH2 receptor [1] turned out to be 125 nM.
The same measure, in the same setting: for `Cc1ccnc(N(C)[C@H]2CCc3c(c4cc(F)ccc4n3CC(=O)O)C2)n1` [Example 17, (3S)-2-(6-fluoro-3-(methyl(4-methylpyrimidin-2-yl)amino)-3,4-dihydro-1H-carbazol-9(2H)-yl)acetic acid] the value was 107 nM.
As to `CN(c1nc2ccccc2s1)[C@H]1CCc2c(c3cc(F)ccc3n2CC(=O)O)C1` [Example 20, (3S)-2-(3-(benzo[d]thiazol-2-yl(methyl)amino)-6-fluoro-3,4-dihydro-1H-carbazol-9(2H)-yl)acetic acid], the IC50 on hCRTH2 receptor [1] was 8.1 nM; on hCRTH2 receptor [2], 40 nM.
Turning to `CN(c1ncnc2ccccc12)[C@H]1CCc2c(c3cc(F)ccc3n2CC(=O)O)C1` [Example 21, (3S)-2-(6-fluoro-3-(methyl(quinazolin-4-yl)amino)-3,4-dihydro-1H-carbazol-9(2H)-yl)acetic acid], on hCRTH2 receptor [1], the IC50 came to 26 nM.
Consider `CN(c1nc(C(F)(F)F)nc2ccccc12)[C@H]1CCc2c(c3cc(F)ccc3n2CC(=O)O)C1` [Example 22, (3S)-2-(6-fluoro-3-(methyl(2-(trifluoromethyl)quinazolin-4-yl)amino)-3,4-dihydro-1H-carbazol-9(2H)-yl)acetic acid], for which the half-maximal inhibitory concentration (IC50) at hCRTH2 receptor [1] stood at 16 nM; on hCRTH2 receptor [2], 380 nM.
The compound `Cc1nc(N(C)[C@H]2CCc3c(c4cc(F)ccc4n3CC(=O)O)C2)c2ccccc2n1` [Example 23, (3S)-2-(6-fluoro-3-(methyl(2-methylquinazolin-4-yl)amino)-3,4-dihydro-1H-carbazol-9(2H)-yl)acetic acid] gave an IC50 at hCRTH2 receptor [1] of 55 nM.
The compound `CC(C)N(c1ncc(Cl)cn1)[C@H]1CCc2c(c3cc(F)ccc3n2CC(=O)O)C1` [Example 26, (3S)-2-(3-((5-chloropyrimidin-2-yl)(isopropyl)amino)-6-fluoro-3,4-dihydro-1H-carbazol-9(2H)-yl)acetic acid] yielded an IC50 on hCRTH2 receptor [1] of 809 nM.
Turning to `CN(c1ncc(-c2ccccc2)cn1)[C@H]1CCc2c(c3cc(F)ccc3n2CC(=O)O)C1` [Example 30, (3S)-2-(6-fluoro-3-(methyl(5-phenylpyrimidin-2-yl)amino)-3,4-dihydro-1H-carbazol-9(2H)-yl)acetic acid], the IC50 on hCRTH2 receptor [1] worked out at 11 nM; on hCRTH2 receptor [2], 41 nM.
Take `COc1cnc(N(C)[C@H]2CCc3c(c4cc(F)ccc4n3CC(=O)O)C2)nc1` [Example 31, (3S)-2-(6-fluoro-3-((5-methoxypyrimidin-2-yl)(methyl)amino)-3,4-dihydro-1H-carbazol-9(2H)-yl)acetic acid]: the IC50 was 7.2 nM on hCRTH2 receptor [1] and 43 nM at hCRTH2 receptor [2].
For `CN(c1ccc(C(F)(F)F)cn1)[C@H]1CCc2c(c3cc(F)ccc3n2CC(=O)O)C1` [Example 35, (3S)-2-(6-fluoro-3-(methyl(5-(trifluoromethyl)pyridin-2-yl)amino)-3,4-dihydro-1H-carbazol-9(2H)-yl)acetic acid], the values for the IC50 at hCRTH2 receptor [1] and at hCRTH2 receptor [2] were 9.1 nM and 20 nM, respectively.
Consider `CN(c1ccc(F)cn1)[C@H]1CCc2c(c3cc(F)ccc3n2CC(=O)O)C1` [Example 36, (3S)-2-(6-fluoro-3-((5-fluoropyridin-2-yl)(methyl)amino)-3,4-dihydro-1H-carbazol-9(2H)-yl)acetic acid], for which the results for the IC50 at hCRTH2 receptor [1] and at hCRTH2 receptor [2] were 9.8 nM and 8 nM, respectively.
Turning to `CN(c1ccc(Cl)cn1)[C@H]1CCc2c(c3cc(F)ccc3n2CC(=O)O)C1` [Example 37, (3S)-2-(3-((5-chloropyridin-2-yl)(methyl)amino)-6-fluoro-3,4-dihydro-1H-carbazol-9(2H)-yl)acetic acid], the figures for the IC50 on hCRTH2 receptor [1] and at hCRTH2 receptor [2] were 5.2 nM and 13 nM, respectively.
Taken in the same sequence, the figures for `O=C(O)Cn1c2c(c3cc(F)ccc31)C[C@@H](N(CC(F)F)c1ncc(Cl)cn1)CC2` [Example 41, (3S)-2-(3-((5-chloropyrimidin-2-yl)(2,2-difluoroethyl)amino)-6-fluoro-3,4-dihydro-1H-carbazol-9(2H)-yl)acetic acid] were 15 nM and 68 nM.
`CN(c1cnc2ccccc2n1)[C@H]1CCc2c(c3cc(F)ccc3n2CC(=O)O)C1` [Example 44, (3S)-2-(6-fluoro-3-(methyl(quinoxalin-2-yl)amino)-3,4-dihydro-1H-carbazol-9(2H)-yl)acetic acid]: the values for the IC50 at hCRTH2 receptor [1] and at hCRTH2 receptor [2] were 11 nM and 176 nM, respectively.
`CN(c1nc(C(C)(C)C)cs1)C1CCc2c(c3cc(F)ccc3n2CC(=O)O)C1` (stereo not drawn) [Example 46, 2-(3-((4-(tert-butyl)thiazol-2-yl)(methyl)amino)-6-fluoro-3,4-dihydro-1H-carbazol-9(2H)-yl)acetic acid] had an IC50 on hCRTH2 receptor [1] of 73 nM.
On to `CN(c1cc(C(C)(C)C)on1)C1CCc2c(c3cc(F)ccc3n2CC(=O)O)C1` (stereo not drawn) [Example 48, 2-(3-((5-(tert-butyl)isoxazol-3-yl)(methyl)amino)-6-fluoro-3,4-dihydro-1H-carbazol-9(2H)-yl)acetic acid], for which the IC50 at hCRTH2 receptor [1] amounted to 72 nM.
Compound `CN(c1ccn(C)n1)C1CCc2c(c3cc(F)ccc3n2CC(=O)O)C1` (stereo not drawn) [Example 49, 2-(6-fluoro-3-(methyl(1-methyl-1H-pyrazol-3-yl)amino)-3,4-dihydro-1H-carbazol-9(2H)-yl)acetic acid] had a half-maximal inhibitory concentration (IC50) at hCRTH2 receptor [1] of 37 nM.
At hCRTH2 receptor [1], `Cc1nnc(N(C)C2CCc3c(c4cc(F)ccc4n3CC(=O)O)C2)s1` (stereo not drawn) [Example 50, 2-(6-fluoro-3-(methyl(5-methyl-1,3,4-thiadiazol-2-yl)amino)-3,4-dihydro-1H-carbazol-9(2H)-yl)acetic acid] registered a half-maximal inhibitory concentration (IC50) of 127 nM.
